Laboratory results as given in US7687478B2, “Disialoundecasaccharide chain asparagine/fatty acid amide and medical drug containing the same” (priority 2003, dated 2010).

Each substance was assayed on influenza virus A/New Caledonia/20/99 (H1N1) (hemagglutinin) (assay: Influenza virus (hemagglutinin) inhibiting activity with fowl blood cells). Settings: A/New Caledonia/20/99 (H1N1) HA split fractions; 0.5% fowl hematid; 4° C., 60 minutes.
Assay type: biochemical

Substance | amount of derivative at which influenza virus (hemagglutinin) inhibiting activity was exhibited
Asparagine-linked Disialoundecaoligosaccharide-stearic Acid Amide [derivative 5] | 47.5 µmol
Asparagine-linked Disialoundecaoligosaccharide-myristic Acid Amide [derivative 4] | 95.0 µmol
Asparagine-linked Disialoundecaoligosaccharide-decanoic Acid Amide [derivative 3] | 190.0 µmol
Asparagine-linked Disialoundecaoligosaccharide-behenic Acid Amide [derivative 6] | 37.5 µmol
